Results: US12233057B2, “Small molecules for inhibiting chemokine activity and/or cancer cells growth” (AlonBio Ltd., priority 2015, dated 2025)

Tested on: MV4-11 (FLT3-ITD) cells
Assay: In vivo AML model: NSG mice transplanted with MV4-11 cells
Details: BKT300 at 98% purity, 1 mg/Kg intraperitoneally, three consecutive days from day 21; day 25; anti human CD45
Description: The effect of BKT300 (at 98% purity) on the proliferation of AML cells in vivo was examined by treatment of NOD Scid gamma (NSG) mice transplanted with MV4-11 (FLT3-ITD) cells.
The mice were subjected to irradiation with 300 rad and on the following day were transplanted by IV injection with MV4-11 (FLT3-ITD) cells, 10×10^6 cells/mouse. 21 days following transplantation, the treated group was injected intraperitoneally with 1 mg/Kg of BKT300 (98% purity) per injection for three consecutive days. On day 25 following transplantation, mice were sacrificed and the survival of the human AML blasts in the blood, spleen and the bone marrow was evaluated using anti human CD45.

## CCCCCc1cc2cc(O)cc(Oc3c(O)cc(O)cc3CCCCC)c2c(=O)o1 [BKT300]
  Number and percentage of AML cells in the bone marrow: dramatically reduced
